From patent publication US20080176857A1, “4-Piperazinnylthieno[2,3-d]Pyrimidine Compounds as Platelet Aggregation Inhibitors” (priority 2005, published 2008)
“And” between values parts separate entries of the source, which are not always exact repeats. Identical values can stand only once.

Biological target: P2Y12 receptor (Homo sapiens, UniProt Q9H244)
Experiment: [33P]-2MeS-ADP binding to recombinant human P2Y12 membranes (Assay 3)
Parameters: expressed in transfected cells; host or cells: HEK cells
Conditions: for IC50 / Ki: HEK cell membranes expressing human P2Y12, competition with 33P 2MeS-ADP
Procedure: 3. Human P2Y12 Recombinant Cell Membrane Binding Assay with ^33P 2MeS-ADP.
The ability of a test compound to bind to the P2Y12 receptor was evaluated in a recombinant cell membrane binding assay. In this competitive binding assay, the test compound competed against a radiolabelled agonist for binding to the P2Y12 receptor, expressed on the cell membrane. Inhibition of binding of the labeled material was measured and correlated to the amount and potency of the test compound. Data from this assay are presented in Table F. This binding assay is a modification of the procedure in Takasaki, J. et. al, Mol. Pharmacol., 2001, Vol. 60, pg. 432.
HEK cells were transfected with the pDONR201P2Y12 vector and cultured in MEM with GlutaMAX I, Earle's salts, 25 mM HEPES (Gibco # 42360-032) containing 10% dialyzed FBS (Gibco # 26400-044), 100 μM nonessential amino acids (Gibco # 11140-050), 1 mM sodium pyruvate (Gibco # 11360-070), 0.05% geneticin (Gibco #10131-027), 3 μg/mL blasticidin (Fluka brand from Sigma # 15205), and 0.5 μg/mL puromycin (Sigma # P-8833).
Confluent cells were washed once with cold DPBS (Gibco # 14190-136). Fresh DPBS was added and the cells were scraped and centrifuged at 500×g for 5 minutes at 4° C. The cell pellets were resuspended in TEE buffer (25 mM Tris, 5 mM EDTA, 5 mM EGTA) containing 1 protease inhibitor cocktail tablet (Roche # 1 873 580) per 50 mL (called TEE+Complete) and can be flash frozen at this point.
In one embodiment, frozen cell pellets were used to prepare the membranes. In that embodiment, the frozen cell pellets were thawed on ice. In another embodiment, cell pellets may be used without flash freezing before moving on to the next step.
Cell pellets were resuspended in TEE buffer+Complete and homogenized in a glass dounce for 12 strokes. The cell suspension was centrifuged at 500×g for 5 minutes at 4° C. The supernatant was saved and centrifuged at 20,000×g for 20 minutes at 4° C. This supernatant was discarded and the cell pellet resuspended in TEE buffer+Complete and homogenized in a glass dounce for 12 strokes. This suspension was centrifuged at 20,000×g for 20 minutes at 4° C. and the supernatant discarded. The pellet was resuspended in assay buffer (50 mM Tris, 100 mM NaCl, 1 mM EDTA) containing one protease inhibitor cocktail tablet per 50 mL, and can be flash frozen as 1 mL aliquots at this point.
Dry compounds were diluted as 10 mM DMSO stocks and tested in a seven-point, three-fold dilution series run in triplicate beginning at 10 μM, final concentration. A 1 mM DMSO intermediate stock was made in a dilution plate and from this the seven dilutions were made to 5× the final concentration in assay buffer containing 0.02% BSA.
The plates were incubated at room temperature for 1 hour. The reaction was stopped using a cell harvester to transfer the reaction mixture onto GF/B UniFilter plates (Perkin Elmer # 6005177), and washed three times with wash buffer (50 mM Tris), filtering between each wash. The filter plates were dried for approximately 20 minutes in an oven at 50° C. Back seals were adhered to the filter plates and 25 uL of Microscint 20 scintillation fluid (Perkin Elmer # 6013621) were added. The filter plates were sealed, shaken for 30 minutes, and counted on a Top Count. Data were analyzed using a four-parameter curve fit with a fixed minimum and maximum experimentally defined as the average positive and negative controls on each plate, and with a hill slope equal to one.
The table below presents the IC50, Ki, and percent inhibition values for compounds tested in either washed human platelets membrane binding assay (assay #1 above) or recombinant cell membrane binding assay (Assay #3, above). Example number refers to the compound prepared as described in the example noted in the section Working Examples, above. The highest concentration of candidate compound tested is listed for each experimental run presented. […]

[1] = at highest concentration tested, 10 μM

Sequence of P2Y12 receptor (Q9H244 whole entry): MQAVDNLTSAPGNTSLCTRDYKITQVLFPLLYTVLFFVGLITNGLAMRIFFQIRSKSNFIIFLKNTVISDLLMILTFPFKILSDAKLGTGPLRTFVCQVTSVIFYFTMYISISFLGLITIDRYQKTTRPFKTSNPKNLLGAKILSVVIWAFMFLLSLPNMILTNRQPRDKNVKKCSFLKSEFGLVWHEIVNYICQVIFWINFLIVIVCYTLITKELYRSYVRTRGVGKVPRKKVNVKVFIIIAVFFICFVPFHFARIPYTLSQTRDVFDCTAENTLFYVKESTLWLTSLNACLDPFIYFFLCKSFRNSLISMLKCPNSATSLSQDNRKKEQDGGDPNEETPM

IC50 | Ki | inhibition at 10 µM [1] [%] | % Inhibition [1] | SMILES
157 nM and 417 nM and 330 nM | 94 nM and 252 nM and 212 nM | 91.3 | 81.22% and 90.29% | CCc1cc2c(N3CCN(C(=O)c4cccc(C#N)c4)CC3)nc(SCC(=O)OC)nc2s1 [Example 64, Methyl ({4-[4-(3-cyanobenzoyl)piperazin-1-yl]-6-ethylthieno[2,3-d]pyrimidin-2-yl}thio)acetate]
620 nM | 370 nM | 81 | – | CCc1cc2c(N3CCN(C(=O)c4ccc5ccoc5c4)CC3)nc(SCC(=O)OC)nc2s1 [Example 65, Methyl ({4-[4-(1-benzofuran-6-ylcarbonyl)piperazin-1-yl]-6-ethylthieno[2,3-d]pyrimidin-2-yl}thio)acetate]
450 nM | 270 nM | 74.6 | – | CCc1cc2c(N3CCN(C(=O)c4ccc(-c5csnn5)cc4)CC3)nc(SCC(=O)OC)nc2s1 [Example 66, Methyl [(6-ethyl-4-{4-[4-(1,2,3-thiadiazol-4-yl)benzoyl]piperazin-1-yl}thieno[2,3-d]pyrimidin-2-yl)thio]acetate]
1230 nM | 740 nM | 79.7 | – | CCc1cc2c(N3CCN(C(=O)c4ccc5c(c4)OCC5)CC3)nc(SCC(=O)OC)nc2s1 [Example 67, Methyl ({4-[4-(2,3-dihydro-1-benzofuran-6-ylcarbonyl)piperazin-1-yl]-6-ethylthieno[2,3-d]pyrimidin-2-yl}thio)acetate]

Continued, compound first:

SMILES | IC50 | Ki | inhibition at 10 µM [1] [%] | % Inhibition [1]
CCc1cc2c(N3CCN(C(=O)c4ccccc4)CC3)nc(SCC(=O)OC)nc2s1 [Example 56, Methyl {[4-(4-benzoylpiperazin-1-yl)-6-ethylthieno[2,3-d]pyrimidin-2-yl]thio}acetate] | 3040 nM | 1520 nM | 64.1 | –
CCOc1ccc(C(=O)N2CCN(c3nc(SCC(=O)OC)nc4sc(CC)cc34)CC2)cc1 [Example 57, Methyl ({4-[4-(4-ethoxybenzoyl)piperazin-1-yl]-6-ethylthieno[2,3-d]pyrimidin-2-yl}thio)acetate] | 1050 nM | 524 nM | 80.8 | –
CCc1cc2c(N3CCN(C(=O)CCOC)CC3)nc(SCC(=O)OC)nc2s1 [Example 58, Methyl ({6-ethyl-4-[4-(3-methoxypropanoyl)piperazin-1-yl]thieno[2,3-d]pyrimidin-2-yl}thio)acetate] | 5250 nM | 2620 nM | 53.6 | –
CCc1cc2c(N3CCN(C(=O)c4ccc(OC)cc4)CC3)nc(SCC(=O)OC)nc2s1 [Example 59, Methyl ({6-ethyl-4-[4-(4-methoxybenzoyl)piperazin-1-yl]thieno[2,3-d]pyrimidin-2-yl}thio)acetate] | 2970 nM | 1480 nM | 67.1 | –
CCc1cc2c(N3CCN(C(=O)c4cccc(C(F)(F)F)c4)CC3)nc(SCC(=O)OC)nc2s1 [Example 60, Methyl [(6-ethyl-4-{4-[3-(trifluoromethyl)benzoyl]piperazin-1-yl}thieno[2,3-d]pyrimidin-2-yl)thio]acetate] | 4870 nM | 3160 nM | 60.8 | –
CCc1cc2c(N3CCN(C(=O)c4cccc(C)c4)CC3)nc(SCC(=O)OC)nc2s1 [Example 61, Methyl ({6-ethyl-4-[4-(3-methylbenzoyl)piperazin-1-yl]thieno[2,3-d]pyrimidin-2-yl}thio)acetate] | 1910 nM | 1240 nM | 78.5 | –
CCc1cc2c(N3CCN(C(=O)c4ccc5[nH]ccc5c4)CC3)nc(SCC(=O)OC)nc2s1 [Example 62, Methyl ({6-ethyl-4-[4-(1H-indol-5-ylcarbonyl)piperazin-1-yl]thieno[2,3-d]pyrimidin-2-yl}thio)acetate] | 5860 nM | 3530 nM | 50.9 | –
CCc1cc2c(N3CCN(C(=O)c4ccc5cc[nH]c5c4)CC3)nc(SCC(=O)OC)nc2s1 [Example 63, Methyl ({6-ethyl-4-[4-(1H-indol-6-ylcarbonyl)piperazin-1-yl]thieno[2,3-d]pyrimidin-2-yl}thio)acetate] | 1880 nM | 1130 nM | 68.1 | –
